Test results taken from patent publication US4686206A, “Composition for activating function of phagocytes” (Sunstar Kabushiki Kaisha, priority 1984, dated 1987).

Assays:
neutrophils [1] = assay: Random migration of human neutrophils (Boyden chamber, PBS in lower part); type: cell-based; conditions: Neutrophil, 1 μg/ml, 15 min preincubation, 1 to 3 hours at 37° C., relative to control = 100%, read-out: random motoricity
Protocol: (§1) Neutrophils were separated from human peripheral blood and the effect of various tocopherylglycosides on random migration and chemotaxis of the neutrophils were measured by using Boyden chambers.
(§2) Tocopherol or a tocopheryl glycoside dissolved in 1% dimethylsulfoxide was added to a suspension containing 2.5×10^6 cells/ml of neutrophils so that a concentration of tocopherol or the tocopheryl glycoside was 1 μg/ml. After 15 minutes incubation at 37° C., the mixture was added to the upper part of the chamber. To the lower part of the chamber was added PBS in case of measuring random migration, or added 2×10^-8 M of N-formyl-methionyl-leucyl-phenylalanine in case of measuring chemotaxis. Then, the chamber was incubated at 37° C. for 1 to 3 hours. After incubation, the filter was fixed and stained with hematoxylin, and then the number of neutrophils migrated to the bottom of the filter was counted by using a microscope. As a control, the same procedure was repeated except that tocopherol or the tocopheryl glycoside was not added. In Table 1, the relative percentage of the counting obtained by addition of tocopherol or the tocopheryl glycoside is shown by taking the counting of the control as 100%.

neutrophils [2] = assay: Chemotaxis of human neutrophils (Boyden chamber, N-formyl-methionyl-leucyl-phenylalanine in lower part); type: cell-based; conditions: Neutrophil, 1 μg/ml, 2×10^-8 M N-formyl-methionyl-leucyl-phenylalanine, 1 to 3 hours at 37° C., relative to control = 100%
Protocol: as §1, §2

neutrophils [3] = assay: Phagocytosis of neutrophils (opsonized FITC-labeled Staphylococcus aureus IFO 13276); type: cell-based; conditions: Homo sapiens, Neutrophil, 0.25 h; 1 μg/ml; 15 min at 37° C.; relative to control = 100%
Protocol: Neutrophils were separated from human peripheral blood and a suspension containing 2.5×10^6 cells/ml of neutrophils was prepared. Tocopherol or a different tocopheryl glycoside was added to 900 μl of this suspension so that the concentration of tocopherol or the tocopheryl glycoside was 1 μg/ml and the mixture was incubated at 37° C. for 15 minutes.
The suspension (100 μl) containing 1×10^9 cells/ml of opsonized Staphylococcus aureus (IFO 13276) labeled with fluorescein isothiocyanate was added to the mixture. The resulting mixture was incubated at 37° C. for 15 minutes. Then, the number of cells incorporated into 100 cells of neutrophils was counted by using a fluorescence microscope. As a control, the same procedure was repeated except that tocopherol or the tocopheryl glycoside was not added. In Table 2, the relative percentage of the counting obtained by addition of tocopherol or the tocopheryl glycoside is shown by taking the counting of the control as 100%.

[4] = test system: Pseudomonas aeruginosa (P-1 strain, Ikaken); assay: In vivo test to Pseudomonas aeruginosa (survival of infected mice); set-up: species or system ICR mice; conditions: 1 mg/kg i.v. once a day for three days; 2.5×10^7 cells P. aeruginosa i.p.; after 24 hours; control 0%
Protocol: An aqueous injectable solution of dl-α-tocopheryl glucoside or dl-α-tocopheryl mannoside (see Example 3) was intravenously injected to ICR mice (body weight: 20 to 25 g, 10 mice per a group (5 female mice and 5 male mice)) once a day (dose: 1 mg/kg) for three days continuously. After the final injection, 2.5×10^7 cells of Pseudomonas aeruginosa (P-1 strain, Ikaken) were injected i.p. and the percentage of survival animuls was determined after 24 hours. As a control, the same procedure was repeated except that an equal amount of distilled water was used instead of the tocopheryl glycoside and the percentage of survival animals was determined. As the result, the percentage of survival of the control group was 0%, whereas that of the group injected with dl-α-tocopherylglucoside or dl-α-tocopherylmannoside was 20%, respectively.

[5] = Acute toxicity (LD50) in rat; conditions: in vivo

SMILES	activity at 1 µg/mL (neutrophils [1])	activity at 1 µg/mL (neutrophils [2])	activity at 1 µg/mL (neutrophils [3])	percentage of survival [4]	LD50 ([5]; ip)	LD50 ([5]; po)
Cc1c(C)c2c(c(C)c1OC1O[C@H](CO)[C@@H](O)[C@H](O)[C@H]1O)CCC(C)(CCCC(C)CCCC(C)CCCC(C)C)O2 (mixture of isomers) [dl-α-Tocopherylglucoside, dl-α-tocopherylglucoside]	98 ± 34%	140 ± 6%	168 ± 31%	20%	≥ 500 mg/kg	≥ 5000 mg/kg
Cc1c(C)c2c(c(C)c1O[C@@H]1O[C@H](CO)[C@@H](O)[C@H](O)[C@@H]1O)CCC(C)(CCCC(C)CCCC(C)CCCC(C)C)O2 (mixture of isomers) [dl-α-Tocopherylmannoside]	71 ± 16%	168 ± 3%	219 ± 21%	20%	≥ 500 mg/kg	≥ 5000 mg/kg
Cc1c(C)c2c(c(C)c1OC1O[C@H](CO)[C@H](O)[C@H](O)[C@H]1O)CCC(C)(CCCC(C)CCCC(C)CCCC(C)C)O2 (mixture of isomers) [dl-α-Tocopherylgalactoside, reference compound]	64 ± 8%	85 ± 3%	112 ± 9%			
Cc1c(C)c2c(c(C)c1O)CCC(C)(CCCC(C)CCCC(C)CCCC(C)C)O2 (racemic) [dl-α-Tocopherol, reference compound]	82 ± 12%	94 ± 5%	164 ± 16%			
